Assay [1] concerns invasion of colorectal cancer cells. The assay can be described thus: In vivo relative invation (invasion; EV and KITENIN controls, no method described). The note with it: relative to EV (=1); KIT = KITENIN.
In another assay the test system is KAI1 promoter. The assay can be described thus: KAI1 promoter luciferase reporter assay in transfected Caco2 cells. The assay is classed as cell-based, human. The note with it: Homo sapiens, Caco-2, 16 h, read-out: Relative KAI promoter activity. In general terms: In a reporter assay the amount or activity of a reporter protein is the signal.
[2] abbreviates: 1 μM compound, 16 hours, transfected Caco2 cells, luciferase activity relative to DMSO control (=1).

Each structure is given as a SMILES string. Like-named read-outs stand apart in the source and are kept apart here.

On to `O=C(CNC(=O)c1ccc(CN(C2CCCCC2)C2CCCCC2)cc1)c1ccccc1` [Example 270, 4-((dicyclohexylamino)methyl)-N-(2-oxo-2-phenylethyl)benzamide], for which, in assay [1], the “In vivo relative invation” value worked out at 1.238. Also, the fold induction at 1 µM with KAI1 promoter (setting [2]) was 1.47.
The matching figures for `Cc1ccccc1NC(=O)COc1ccccc1C(=O)NCC(=O)c1ccccc1` [Example 202, 2-(2-oxo-2-(o-toylamino)ethoxy)-N-(2-oxo-2-phenylethyl)benzamide]: 1.138 and 1.31.
With `O=C(CNC(=O)c1ccccc1OC1CCN(C(=O)c2ccc(C(F)(F)F)cc2)CC1)c1ccccc1` [Example 193, N-(2-oxo-2-phenylethyl)-2-((1-(4-(trifluoromethyl)benzoyl)piperidin-4-yl)oxy)benzamide], in assay [1], the “In vivo relative invation” value is listed as 1.214. Besides, the fold induction at 1 µM in the assay on KAI1 promoter (setting [2]) worked out at 0.82.
Regarding `O=C(COc1ccccc1C(=O)NCC(=O)c1ccccc1)Nc1ccccc1` [Example 201, 2-(2-oxo-2-(phenylamino)ethoxy)-N-(2-oxo-2-phenylethyl)benzamide], in assay [1], the “In vivo relative invation” value was found to be 0.9283. Also, in the assay on KAI1 promoter (setting [2]), the fold induction at 1 µM amounted to 1.46.
`O=C(CNC(=O)c1ccc(-c2ccccc2)cc1)c1ccc(Cl)cc1` [Example 86, N-(2-(4-chlorophenyl)-2-oxoethyl)-[1,1′-biphenyl]-4-carboxamide]: the “In vivo relative invation” value in assay [1] was found to be 1.193. For the same molecule, in the assay with KAI1 promoter (setting [2]), the fold induction at 1 µM was 1.01.
The matching figures for `CCCCC(=O)N1CCC(Oc2ccccc2C(=O)NCC(=O)c2ccccc2)CC1` [Example 172, N-(2-oxo-2-phenylethyl)-2-((1-pentanoylpiperidin-4-yl)oxy)benzamide]: 1.16 and 0.93.
The matching figures for `COCC(=O)NCC(=O)c1ccc(Cl)cc1` [Example 65, N-(2-(4-chlorophenyl)-2-oxoethyl)-2-methoxyacetamide]: 1.191 and 0.84.
In the case of `O=C(CNC(=O)c1ccc(CN2CCN(c3ccccn3)CC2)cc1)c1ccccc1` [Example 264, N-(2-oxo-2-phenylethyl)-4-((4-(pyridin-2-yl)piperazin-1-yl)methyl)benzamide], in assay [1], the “In vivo relative invation” value worked out at 1.199. For the same molecule, the fold induction at 1 µM in the assay with KAI1 promoter (setting [2]) amounted to 1.91.
`O=C(CNC(=O)c1ccccc1OC1CCN(S(=O)(=O)c2ccccc2)CC1)c1ccccc1` [Example 187, N-(2-oxo-2-phenylethyl)-2-((1-(phenylsulfonyl)piperidin-4-yl)oxy)benzamide]: the “In vivo relative invation” value in assay [1] is listed as 1.235. Further, the fold induction at 1 µM in the assay with KAI1 promoter (setting [2]) worked out at 1.03.
`CCCCC(=O)NCC(=O)c1ccc(Cl)cc1` [Example 61, N-(2-(4-chlorophenyl)-2-oxoethyl)pentanamide]: in assay [1], the “In vivo relative invation” value worked out at 1. In addition, the fold induction at 1 µM with KAI1 promoter (setting [2]) stood at 0.72.
With `O=C(CNC(=O)c1cccc(Cl)c1Cl)c1ccccc1` [Example 37, 2,3-dichloro-N-(2-oxo-2-phenylethyl)benzamide], the “In vivo relative invation” value in assay [1] was determined as 0.9648. In addition, the fold induction at 1 µM in the assay on KAI1 promoter (setting [2]) came out at 1.17.
As for `COc1cccc(C(=O)CNC(=O)C2CC2)c1` [Example 125, N-(2-(3-methoxyphenyl)-2-oxoethyl)cyclopropanecarboxamide], the “In vivo relative invation” value in assay [1] amounted to 0.8965. In addition, the fold induction at 1 µM in the assay with KAI1 promoter (setting [2]) was 1.48.
`O=C(CNC(=O)c1ccccc1OC1CCN(C(=O)C2CCCCC2)CC1)c1ccccc1` [Example 165, 2-((1-(cyclohexanecarbonyl)piperidin-4-yl)oxy)-N-(2-oxo-2-phenylethyl)benzamide]: the “In vivo relative invation” value in assay [1] is reported as 1.133. Also, the fold induction at 1 µM in the assay with KAI1 promoter (setting [2]) turned out to be 1.07.
For `COc1cccc(C(=O)CNC(=O)c2cccc(CN3CCN(C(=O)OC(C)(C)C)CC3)c2)c1` [Example 289, tert-butyl 4-(3-((2-(3-methoxyphenyl)-2-oxoethyl)carbamoyl)benzyl)piperazine-1-carboxylate], the “In vivo relative invation” value in assay [1] came out at 1.263. The fold induction at 1 µM in the assay with KAI1 promoter (setting [2]) turned out to be 1.61.
On to `CC1CN(Cc2ccc(C(=O)NCC(=O)c3ccccc3)cc2)CC(C)O1` (stereo not shown) [Example 278, 4-((2,6-dimethylmorpholino)methyl)-N-(2-oxo-2-phenylethyl)benzamide], for which the “In vivo relative invation” value in assay [1] came to 1.217. Also, the fold induction at 1 µM in the assay with KAI1 promoter (setting [2]) came out at 1.38.
For `O=C(CNC(=O)c1cccs1)c1ccccc1` [Example 18, N-(2-oxo-2-phenylethyl)thiophene-2-carboxamide] the same measures were 1.1 and 2.18.
As to `O=C(CNC(=O)c1ccccc1OC1CCN(S(=O)(=O)c2ccc(Cl)cc2)CC1)c1ccccc1` [Example 186, 2-((1-((4-chlorophenyl)sulfonyl)piperidin-4-yl)oxy)-N-(2-oxo-2-phenylethyl)benzamide], the “In vivo relative invation” value in assay [1] worked out at 1.145. Further, in the assay with KAI1 promoter (setting [2]), the fold induction at 1 µM came out at 1.06.
For `COc1cccc(C(=O)CNC(=O)c2cccc(CN3CCN(c4ccccc4OC)CC3)c2)c1` [Example 282, N-(2-(3-methoxyphenyl)-2-oxoethyl)-3-((4-(2-methoxyphenyl)piperazin-1-yl)methyl)benzamide] the same measures were 1.214 and 1.47.
Regarding `O=C(CNS(=O)(=O)c1ccc(Cl)cc1)c1ccc(Cl)cc1` [Example 69, 4-chloro-N-(2-(4-chlorophenyl)-2-oxoethyl)benzenesulfonamide], the “In vivo relative invation” value in assay [1] came out at 1.095. The fold induction at 1 µM in the assay on KAI1 promoter (setting [2]) stood at 0.84.
Regarding `O=C(CNC(=O)c1ccco1)c1ccccc1` [Example 5, N-(2-oxo-2-phenylethyl)furan-2-carboxamide], in assay [1], the “In vivo relative invation” value is given as 0.812. In addition, the fold induction at 1 µM with KAI1 promoter amounted to 1.98.
In the case of `O=C(CNC(=O)c1ccccc1OC1CCN(S(=O)(=O)c2ccc(F)cc2)CC1)c1ccccc1` [Example 184, 2-((1-((4-fluorophenyl)sulfonyl)piperidin-4-yl)oxy)-N-(2-oxo-2-phenylethyl)benzamide], in assay [1], the “In vivo relative invation” value was determined as 1.114. Moreover, in the assay on KAI1 promoter (setting [2]), the fold induction at 1 µM came to 0.98.
For the molecule `CN(C)c1ccc(C(=O)CNC(=O)c2ccccc2Cl)cc1` [Example 93, 2-chloro-N-(2-(4-(dimethylamino)phenyl)-2-oxoethyl)benzamide], the “In vivo relative invation” value in assay [1] stood at 1.091. Besides, the fold induction at 1 µM in the assay with KAI1 promoter (setting [2]) turned out to be 2.48.
For `CCCN(CC)Cc1cccc(C(=O)NCC(=O)c2cccc(OC)c2)c1` [Example 294, 3-((ethyl(propyl)amino)methyl)-N-(2-(3-methoxyphenyl)-2-oxoethyl)benzamide], the “In vivo relative invation” value in assay [1] is 1.033. Moreover, the fold induction at 1 µM with KAI1 promoter (setting [2]) came out at 1.57.
With `O=C(COc1ccccc1C(=O)NCC(=O)c1ccccc1)Nc1cc(C(F)(F)F)ccc1F` [Example 222, 2-(2-((2-fluoro-5-(trifluoromethyl)phenyl)amino)-2-oxoethoxy)-N-(2-oxo-2-phenylethyl)benzamide], the “In vivo relative invation” value in assay [1] amounted to 1.275. Also, the fold induction at 1 µM with KAI1 promoter (setting [2]) came to 1.2.
Take `COc1cc(C)ccc1NC(=O)COc1ccccc1C(=O)NCC(=O)c1ccccc1` [Example 206, 2-(2-((2-methoxy-4-methylphenyl)amino)-2-oxoethoxy)-N-(2-oxo-2-phenylethyl)benzamide]: in assay [1], the “In vivo relative invation” value stood at 1.11. The fold induction at 1 µM with KAI1 promoter (setting [2]) turned out to be 1.05.
`O=C(CNC(=O)c1cc(Cl)cc(Cl)c1)c1ccc(Cl)cc1` [Example 79, 3,5-dichloro-N-(2-(4-chlorophenyl)-2-oxoethyl)benzamide]: the “In vivo relative invation” value in assay [1] is listed as 1.102. Moreover, the fold induction at 1 µM in the assay on KAI1 promoter (setting [2]) is 1.03.
In the case of `CCN(CC)Cc1cccc(C(=O)NCC(=O)c2ccccc2)c1` [Example 247, 3-((diethylamino)methyl)-N-(2-oxo-2-phenylethyl)benzamide], in assay [1], the “In vivo relative invation” value amounted to 1.124. The fold induction at 1 µM with KAI1 promoter (setting [2]) was found to be 1.27.
As to `CCCCN(CCO)Cc1ccc(C(=O)NCC(=O)c2ccccc2)cc1` [Example 268, 4-((butyl(2-hydroxyethyl)amino)methyl)-N-(2-oxo-2-phenylethyl)benzamide], the “In vivo relative invation” value in assay [1] is 1.22. Further, in the assay on KAI1 promoter (setting [2]), the fold induction at 1 µM was determined as 1.6.
Consider `O=C(CNC(=O)C1CC1)c1ccc(N2CCOCC2)cc1` [Example 143, N-(2-(4-morpholinophenyl)-2-oxoethyl)cyclopropanecarboxamide], for which the “In vivo relative invation” value in assay [1] was found to be 0.8028. Further, the fold induction at 1 µM in the assay with KAI1 promoter (setting [2]) came out at 1.16.
On to `O=C(CCc1ccccc1)NCC(=O)c1ccc(Cl)cc1` [Example 49, N-(2-(4-chlorophenyl)-2-oxoethyl)-3-phenylpropanamide], for which the “In vivo relative invation” value in assay [1] amounted to 1.197. Further, in the assay on KAI1 promoter (setting [2]), the fold induction at 1 µM was 0.7.
For the molecule `CC(C)(C)OC(=O)N1CCN(Cc2cccc(C(=O)NCC(=O)c3ccccc3)c2)CC1` [Example 245, tert-butyl 4-(3-((2-oxo-2-phenylethyl)carbamoyl)benzyl) piperazine-1-carboxylate], the “In vivo relative invation” value in assay [1] is 1.126. For the same molecule, the fold induction at 1 µM in the assay on KAI1 promoter (setting [2]) stood at 1.35.
As for `O=C(CNS(=O)(=O)Cc1ccccc1)c1ccc(N2CCOCC2)cc1` [Example 149, N-(2-(4-morpholinophenyl)-2-oxoethyl)-1-phenylmethanesulfonamide], the “In vivo relative invation” value in assay [1] came out at 1.261. In addition, in the assay on KAI1 promoter (setting [2]), the fold induction at 1 µM was determined as 1.07.
Turning to `O=C(CCc1ccccc1)NCC(=O)c1ccccc1` [Example 9, N-(2-oxo-2-phenylethyl)-3-phenylpropanamide], the “In vivo relative invation” value in assay [1] was determined as 0.8419. Besides, in the assay with KAI1 promoter (setting [2]), the fold induction at 1 µM is 1.14.
Take `O=C(CNC(=O)c1ccc(F)c(F)c1)c1ccc(Cl)cc1` [Example 78, N-(2-(4-chlorophenyl)-2-oxoethyl)-3,4ifluorobenzamide]: in assay [1], the “In vivo relative invation” value came to 1.17. Further, the fold induction at 1 µM in the assay on KAI1 promoter (setting [2]) amounted to 0.9.
For `O=C(CNC(=O)c1ccc(F)cc1F)c1ccc(Cl)cc1` [Example 64, N-(2-(4-chlorophenyl)-2-oxoethyl)-2,4ifluorobenzamide], in assay [1], the “In vivo relative invation” value stood at 1.083. In the assay on KAI1 promoter (setting [2]), the fold induction at 1 µM was 1.35.

The record behind these values is patent US20230150924A1, “NOVEL COMPOUND HAVING CANCER METASTASIS INHIBITORY ACTIVITY, PREPARATION METHOD THEREFOR, AND PHARMACEUTICAL COMPOSITION FOR INHIBITING CANCER METASTASIS AND INVASION OR TREATING COLORECTAL CANCER, COMPRISING COMPOUND” (CELLGENTEK CO., LTD., priority 2019, published 2023).
